What was measured:
P110 δ/Pi3K δ = P110 δ/Pi3K δ (Homo sapiens, UniProt O00329); test: Fluorescent (HTRF) determination of PI3K enzyme activity, δ isoform; type: biochemical; design: inhibition: dose or concentration left out as unconfirmed; settings: for IC50: read-out: P110 δ/ Pi3K δ IC 50 nM
Method in brief: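 IC50 fitted from percent inhibition relative to blank and enzyme-only wells. Human PI3Kδ converts PIP2 to PIP3 after addition of 400 μM ATP solution, 30 min at room temperature. Product read by time-resolved FRET after stop and 6–18 h dark incubation with detection reagents.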

Sequence of P110 δ/Pi3K δ (O00329 whole entry, canonical isoform): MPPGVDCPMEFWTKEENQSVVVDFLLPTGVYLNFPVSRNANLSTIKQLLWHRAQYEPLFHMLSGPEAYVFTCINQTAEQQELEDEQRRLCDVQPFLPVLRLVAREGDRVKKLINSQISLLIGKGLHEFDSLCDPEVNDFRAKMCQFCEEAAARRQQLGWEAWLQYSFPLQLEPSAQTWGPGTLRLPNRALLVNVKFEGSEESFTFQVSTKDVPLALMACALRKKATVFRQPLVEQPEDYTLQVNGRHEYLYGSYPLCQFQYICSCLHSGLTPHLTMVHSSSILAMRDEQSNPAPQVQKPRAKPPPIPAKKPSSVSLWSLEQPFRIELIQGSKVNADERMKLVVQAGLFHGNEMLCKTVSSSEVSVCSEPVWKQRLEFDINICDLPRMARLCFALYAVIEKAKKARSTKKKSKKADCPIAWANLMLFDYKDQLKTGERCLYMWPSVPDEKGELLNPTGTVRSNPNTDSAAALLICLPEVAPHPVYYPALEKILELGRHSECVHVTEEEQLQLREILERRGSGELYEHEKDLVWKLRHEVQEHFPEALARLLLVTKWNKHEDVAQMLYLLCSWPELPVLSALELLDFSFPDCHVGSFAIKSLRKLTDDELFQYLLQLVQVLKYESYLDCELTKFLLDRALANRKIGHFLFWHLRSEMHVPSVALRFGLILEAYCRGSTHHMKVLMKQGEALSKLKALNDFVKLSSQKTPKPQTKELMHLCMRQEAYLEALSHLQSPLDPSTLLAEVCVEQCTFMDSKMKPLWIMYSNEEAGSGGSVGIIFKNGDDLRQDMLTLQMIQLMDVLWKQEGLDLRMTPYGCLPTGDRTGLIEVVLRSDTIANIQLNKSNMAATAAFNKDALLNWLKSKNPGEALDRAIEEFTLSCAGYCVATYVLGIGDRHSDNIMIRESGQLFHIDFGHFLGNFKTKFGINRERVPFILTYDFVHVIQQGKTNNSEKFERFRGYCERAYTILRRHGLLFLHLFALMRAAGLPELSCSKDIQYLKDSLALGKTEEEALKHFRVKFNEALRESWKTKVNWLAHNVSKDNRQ
Sequence of P110 δ/Pi3K δ (P27986 whole entry partner, canonical isoform): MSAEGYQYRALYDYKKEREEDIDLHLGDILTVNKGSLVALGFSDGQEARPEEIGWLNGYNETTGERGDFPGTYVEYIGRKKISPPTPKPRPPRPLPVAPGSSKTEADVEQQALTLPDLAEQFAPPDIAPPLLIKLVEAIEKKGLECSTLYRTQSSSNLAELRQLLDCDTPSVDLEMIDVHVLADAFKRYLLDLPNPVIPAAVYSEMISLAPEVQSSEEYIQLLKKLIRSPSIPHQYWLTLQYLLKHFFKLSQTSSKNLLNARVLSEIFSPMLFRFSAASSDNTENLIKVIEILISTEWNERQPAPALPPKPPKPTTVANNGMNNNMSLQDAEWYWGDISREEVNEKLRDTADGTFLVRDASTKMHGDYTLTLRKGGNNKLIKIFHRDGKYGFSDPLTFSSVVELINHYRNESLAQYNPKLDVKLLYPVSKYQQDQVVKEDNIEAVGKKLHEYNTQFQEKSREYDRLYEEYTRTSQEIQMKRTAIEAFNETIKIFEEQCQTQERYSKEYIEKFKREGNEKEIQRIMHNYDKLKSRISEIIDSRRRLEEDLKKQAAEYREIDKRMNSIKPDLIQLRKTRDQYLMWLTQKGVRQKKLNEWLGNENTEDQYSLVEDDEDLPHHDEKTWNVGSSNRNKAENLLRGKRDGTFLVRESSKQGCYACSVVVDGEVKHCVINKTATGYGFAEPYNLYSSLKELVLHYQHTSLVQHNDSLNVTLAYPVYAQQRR

| SMILES | inhibition (P110 δ/Pi3K δ) [%] | melting point [°C] | IC50 (P110 δ/Pi3K δ) [nM] |
| --- | --- | --- | --- |
| CC(c1oc2ccccc2c(=O)c1-c1cccc(F)c1)n1nc(-c2ccc3cc[nH]c3c2)c2c(N)ncnc21 (stereo not shown) [Example 94, 2-(1-(4-amino-3-(1H-indol-6-yl)-1H-pyrazolo[3,4-d]pyrimidin-1-yl)ethyl)-3-(3-fluorophenyl)-4H-chromen-4-one] | 50 to 100 | 222 to 225 | – |
| CC(c1oc2ccccc2c(=O)c1-c1cccc(F)c1)n1nc(-c2ccc(Cl)c(O)c2)c2c(N)ncnc21 (stereo not shown) [Example 95a, 2-(1-(4-amino-3-(4-chloro-3-hydroxyphenyl)-1H-pyrazolo[3,4-d]pyrimidin-1-yl)ethyl)-3-(3-fluorophenyl)-4H-chromen-4-one] | 50 to 100 | 134 to 136 | < 250 |
| CC(c1oc2ccccc2c(=O)c1-c1cccc(F)c1)n1nc(-c2cc(O)ccc2Cl)c2c(N)ncnc21 (stereo not shown) [Example 96a, 2-(1-(4-amino-3-(2-chloro-5-hydroxyphenyl)-1H-pyrazolo[3,4-d]pyrimidin-1-yl)ethyl)-3-(3-fluorophenyl)-4H-chromen-4-one] | 50 to 100 | 192 to 195 | – |
| COc1ccc(-c2nn(C(C)c3oc4ccccc4c(=O)c3-c3cccc(F)c3)c3ncnc(N)c23)cc1OC (stereo not shown) [Example 97, 2-(1-(4-amino-3-(3,4-dimethoxyphenyl)-1H-pyrazolo[3,4-d]pyrimidin-1-yl)ethyl)-3-(3-fluorophenyl)-4H-chromen-4-one] | 50 to 100 | 232 to 235 | – |
| CC(c1oc2ccccc2c(=O)c1-c1cccc(F)c1)n1nc(-c2ccc(O)c(O)c2)c2c(N)ncnc21 (stereo not shown) [Example 98, 2-(1-(4-amino-3-(3,4-dihydroxyphenyl)-1H-pyrazolo[3,4-d]pyrimidin-1-yl)ethyl)-3-(3-fluorophenyl)-4H-chromen-4-one] | 50 to 100 | 193 to 195 | < 250 |
| Cc1n[nH]c2cc(-c3nn(Cc4oc5ccccc5c(=O)c4-c4cccc(F)c4)c4ncnc(N)c34)ccc12 [Example 99, 2-((4-amino-3-(3-methyl-1H-indazol-6-yl)-1H-pyrazolo[3,4-d]pyrimidin-1-yl)methyl)-3-(3-fluorophenyl)-4H-chromen-4-one] | 50 to 100 | 246 to 248 | – |
| CC(c1oc2ccccc2c(=O)c1-c1cccc(F)c1)n1nc(-c2ccc3[nH]ccc3c2)c2c(N)ncnc21 (stereo not shown) [Example 100, 2-(1-(4-amino-3-(1H-indol-5-yl)-1H-pyrazolo[3,4-d]pyrimidin-1-yl)ethyl)-3-(3-fluorophenyl)-4H-chromen-4-one] | 50 to 100 | 197 to 199 | – |
| Cc1c[nH]c2ccc(-c3nn(C(C)c4oc5ccccc5c(=O)c4-c4cccc(F)c4)c4ncnc(N)c34)cc12 (stereo not shown) [Example 101, 2-(1-(4-Amino-3-(3-methyl-1H-indol-5-yl)-1H-pyrazolo[3,4-d]pyrimidin-1-yl)ethyl)-3-(3-fluorophenyl)-4H-chromen-4-one] | < 50 | 171 to 173 | – |
| CC(c1oc2ccccc2c(=O)c1-c1cccc(F)c1)n1nc(-c2ccc(CN)s2)c2c(N)ncnc21 (stereo not shown) [Example 102a, 2-(1-(4-amino-3-(5-(aminomethyl)thiophen-2-yl)-1H-pyrazolo[3,4-d]pyrimidin-1-yl)ethyl)-3-(3-fluorophenyl)-4H-chromen-4-one] | < 50 | 275 to 278 | – |
| Cc1n[nH]c2cc(-c3nn(Cc4oc5ccc(F)cc5c(=O)c4-c4ccccc4)c4ncnc(N)c34)ccc12 [Example 103, 2-((4-amino-3-(3-methyl-1H-indazol-6-yl)-1H-pyrazolo[3,4-d]pyrimidin-1-yl)methyl)-6-fluoro-3-phenyl-4H-chromen-4-one] | 50 to 100 | 277 to 279 | < 250 |
| Cc1n[nH]c2cc(-c3nn(C(C)c4oc5ccccc5c(=O)c4-c4ccccc4)c4ncnc(N)c34)ccc12 (stereo not shown) [Example 104, 2-(1-(4-amino-3-(3-methyl-1H-indazol-6-yl)-1H-pyrazolo[3,4-d]pyrimidin-1-yl)ethyl)-3-phenyl-4H-chromen-4-one] | 50 to 100 | 249 to 252 | < 250 |
| CC(c1oc2ccccc2c(=O)c1-c1cccc(F)c1)n1nc(-c2ccc(N)cc2)c2c(N)ncnc21 (stereo not shown) [Example 107a, 2-(1-(4-amino-3-(4-aminophenyl)-1H-pyrazolo[3,4-d]pyrimidin-1-yl)ethyl)-3-(3-fluorophenyl)-4H-chromen-4-one] | < 50 | 91 to 94 | – |
| Nc1ncnc2c1c(-c1cc(O)cc(F)c1)nn2Cc1oc2ccc(F)cc2c(=O)c1-c1cccc(F)c1 [Example 120a, 2-((4-amino-3-(3-fluoro-5-hydroxyphenyl)-1H-pyrazolo[3,4-d]pyrimidin-1-yl)methyl)-6-fluoro-3-(3-fluorophenyl)-4H-chromen-4-one] | 50 to 100 | 127 to 129 | – |
| CC(c1oc2ccc(F)cc2c(=O)c1-c1cccc(F)c1)n1nc(-c2cccc(O)c2)c2c(N)ncnc21 (stereo not shown) [Example 121a, 2-(1-(4-amino-3-(3-hydroxyphenyl)-1H-pyrazolo[3,4-d]pyrimidin-1-yl)ethyl)-6-fluoro-3-(3-fluorophenyl)-4H-chromen-4-one] | 50 to 100 | 193 to 196 | – |
| Nc1ncnc2c1c(-c1cc(F)c(O)c(F)c1)nn2Cc1oc2ccc(F)cc2c(=O)c1-c1cccc(F)c1 [Example 127a, 2-((4-amino-3-(3,5-difluoro-4-hydroxyphenyl)-1H-pyrazolo[3,4-d]pyrimidin-1-yl)methyl)-6-fluoro-3-(3-fluorophenyl)-4H-chromen-4-one] | < 50 | 274 to 278 | – |
| CC(C)Oc1ccc(F)c(-c2nn(C(C)c3oc4ccccc4c(=O)c3-c3cccc(F)c3)c3ncnc(N)c23)c1 (stereo not shown) [Example 132, 2-(1-(4-amino-3-(2-fluoro-5-isopropoxyphenyl)-1H-pyrazolo[3,4-d]pyrimidin-1-yl)ethyl)-3-(3-fluorophenyl)-4H-chromen-4-one] | < 50 | 198 to 201 | – |
| COc1ccc(-c2nn(C(C)c3oc4ccccc4c(=O)c3-c3cccc(F)c3)c3ncnc(N)c23)cc1Cl (stereo not shown) [Example 157, 2-(1-(4-amino-3-(3-chloro-4-methoxyphenyl)-1H-pyrazolo[3,4-d]pyrimidin-1-yl)ethyl)-3-(3-fluorophenyl)-4H-chromen-4-one] | < 50 | 246 to 249 | – |
| CC(c1oc2ccccc2c(=O)c1-c1cccc(F)c1)n1nc(-c2ccc(F)nc2)c2c(N)ncnc21 (stereo not shown) [Example 159, 2-(1-(4-amino-3-(6-fluoropyridin-3-yl)-1H-pyrazolo[3,4-d]pyrimidin-1-yl)ethyl)-3-(3-fluorophenyl)-4H-chromen-4-one] | < 50 | 203 to 206 | – |
| COCc1cccc(-c2nn(C(C)c3oc4ccccc4c(=O)c3-c3cccc(F)c3)c3ncnc(N)c23)c1 (stereo not shown) [Example 161, 2-(1-(4-amino-3-(3-(methoxymethyl)phenyl)-1H-pyrazolo[3,4-d]pyrimidin-1-yl)ethyl)-3-(3-fluorophenyl)-4H-chromen-4-one] | < 50 | 167 to 170 | – |
| CC(c1oc2ccccc2c(=O)c1-c1cccc(F)c1)n1nc(-c2ccc3cc(O)ccc3c2)c2c(N)ncnc21 (stereo not shown) [Example 162, 2-(1-(4-amino-3-(6-hydroxynaphthalen-2-yl)-1H-pyrazolo[3,4-d]pyrimidin-1-yl)ethyl)-3-(3-fluorophenyl)-4H-chromen-4-one] | 50 to 100 | 281 to 285 | – |
| CC(C)Oc1cccc(-c2nn(C(C)c3oc4ccccc4c(=O)c3-c3cccc(F)c3)c3ncnc(N)c23)c1 (stereo not shown) [Example 163, 2-(1-(4-amino-3-(3-isopropoxyphenyl)-1H-pyrazolo[3,4-d]pyrimidin-1-yl)ethyl)-3-(3-fluorophenyl)-4H-chromen-4-one] | < 50 | 153 to 157 | – |
| COc1ccc(NC(C)c2oc3ccc(F)cc3c(=O)c2-c2cccc(F)c2)cc1 (stereo not shown) [Example 165, 6-Fluoro-3-(3-fluorophenyl)-2-(1-(4-methoxyphenylamino)ethyl)-4H-chromen-4-one] | < 50 | 152 to 156 | – |
| CC(c1oc2ccccc2c(=O)c1-c1cccc(F)c1)n1ccc2c(Cl)ncnc21 (stereo not shown) [Example 166, 2-(1-(4-Chloro-7H-pyrrolo[2,3-d]pyrimidin-7-yl)ethyl)-3-(3-fluorophenyl)-4H-chromen-4-one] | < 50 | 71 to 75 | – |
| CC(c1oc2ccccc2c(=O)c1-c1cccc(F)c1)n1ncc2c(Cl)ccnc21 (stereo not shown) [Example 167, 2-(1-(4-Chloro-1H-pyrazolo[3,4-b]pyridin-1-yl)ethyl)-3-(3-fluorophenyl)-4H-chromen-4-one] | < 50 | 173 to 176 | – |
| CC(c1oc2ccccc2c(=O)c1-c1cccc(F)c1)n1ncc2c(Cl)ncnc21 (stereo not shown) [Example 168, 2-(1-(4-Chloro-1H-pyrazolo[3,4-d]pyrimidin-1-yl)ethyl)-3-(3-fluorophenyl)-4H-chromen-4-one] | < 50 | 197 to 201 | – |
| CC(c1oc2ccccc2c(=O)c1-c1cccc(F)c1)n1ccc2ncnc(Cl)c21 (stereo not shown) [Example 169, 2-(1-(4-Chloro-5H-pyrrolo[3,2-d]pyrimidin-5-yl)ethyl)-3-(3-fluorophenyl)-4H-chromen-4-one] | < 50 | 166 to 168 | – |
| Cc1nn(C)c2cc(-c3nn(C(C)c4oc5ccccc5c(=O)c4-c4cccc(F)c4)c4ncnc(N)c34)ccc12 (stereo not shown) [Example 170, 2-(1-(4-amino-3-(1,3-dimethyl-1H-indazol-6-yl)-1H-pyrazolo[3,4-d]pyrimidin-1-yl)ethyl)-3-(3-fluorophenyl)-4H-chromen-4-one] | 50 to 100 | 270 to 272 | – |

Reference: patent publication US9421209B2, “Kinase modulators” (Rhizen Pharmaceuticals SA, priority 2009, dated 2016)
